Experimental data taken from US9302999B2, “Substituted triazoles as herbicides” (E. I. DU PONT DE NEMOURS AND COMPANY, priority 2012, dated 2016).

Key:
Type in all cases: in vivo
[1] = system: foxtail, giant (giant foxtail, Setaria faberii); assay: Test A pre-/postemergence: foxtail, giant; settings: for Foxtail, Giant plant response rating: Postemergence; for Plant response rating, Foxtail, Giant: Preemergence
Procedure, shortened: (§1)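 Injury is scored visually on a scale where 0 means no effect and 100 complete control, comparing treated with untreated plants after approximately ten greenhouse days. Both preemergence and postemergence applications are made at the same time.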

[2] = system: barnyardgrass (Echinochloa crus-galli); assay: Test C flooded paddy test: barnyardgrass; settings: scale 0 to 100 (0 no effect, 100 complete control)
Procedure, shortened: (§2)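 Rating: visual, 0–100 (100 = complete control), versus untreated controls after 13 to 15 greenhouse days. Treatment went into paddy water held at 3 cm over the soil, on plants grown to two leaves.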

[3] = system: morningglory (Ipomoea spp.); assay: Test A pre-/postemergence: morningglory; settings: for Morningglory plant response rating: Postemergence; for Plant response rating, Morningglory: Preemergence
Procedure, shortened: as §1

[4] = system: crabgrass, large (large crabgrass, Digitaria sanguinalis); assay: Test A pre-/postemergence: crabgrass, large; settings: for Crabgrass, Large plant response rating: Postemergence; for Plant response rating, Crabgrass, Large: Preemergence
Procedure, shortened: as §1

[5] = system: ducksalad (Heteranthera limosa); assay: Test C flooded paddy test: ducksalad; settings: scale 0 to 100 (0 no effect, 100 complete control)
Procedure, shortened: as §2

rice (Oryza sativa) = assay: Test C flooded paddy test: rice; settings: scale 0 to 100 (0 no effect, 100 complete control)
Procedure, shortened: as §2

[6] = system: pigweed (Amaranthus retroflexus); assay: Test A pre-/postemergence: pigweed; settings: for Pigweed plant response rating: Postemergence; for Plant response rating, Pigweed: Preemergence
Procedure, shortened: as §1

[7] = system: velvetleaf (Abutilon theophrasti); assay: Test A pre-/postemergence: velvetleaf; settings: for Velvetleaf plant response rating: Postemergence; for Plant response rating, Velvetleaf: Preemergence
Procedure, shortened: as §1

[8] = system: sedge, umbrella (small-flower umbrella sedge, Cyperus difformis); assay: Test C flooded paddy test: sedge, umbrella; settings: scale 0 to 100 (0 no effect, 100 complete control)
Procedure, shortened: as §2

corn (Zea mays) = assay: Test A pre-/postemergence: corn; settings: for Corn plant response rating: Postemergence; for Plant response rating, Corn: Preemergence
Procedure, shortened: as §1

[9] = system: wheat (Triticum aestivum); assay: Test A pre-/postemergence: wheat; settings: for Wheat plant response rating: Postemergence; for Plant response rating, Wheat: Preemergence
Procedure, shortened: as §1

[10] = system: barnyardgrass (Echinochloa crus-galli); assay: Test A pre-/postemergence: barnyardgrass; settings: for Barnyardgrass plant response rating: Postemergence; for Plant response rating, Barnyardgrass: Preemergence
Procedure, shortened: as §1

[11] = 125 g ai/ha, 0 to 100 scale, 0 is no effect, 100 is complete control
[12] = 500 g ai/ha, visual rating on 0 to 100 scale (0 no effect, 100 complete control), approximately ten days
[13] = 125 g ai/ha, 0 to 100 scale (0 no effect, 100 complete control)
[14] = 500 g ai/ha, 0 to 100 scale, 0 is no effect, 100 is complete control
[15] = Flood (flooded paddy test), 62 g ai/ha, visual rating after 13 to 15 days
[16] = Flood (flooded paddy test), 125 g ai/ha, visual rating after 13 to 15 days
[17] = Flood (flooded paddy test), 250 g ai/ha, visual rating after 13 to 15 days

Cc1nn(-c2ccc(C(F)(F)F)cn2)nc1Cn1cnc(C(F)(F)F)n1 [Compound 8]
Foxtail, Giant plant response rating [1, 11]: 30
Foxtail, Giant plant response rating [1, 12]: 80
Plant response rating, Foxtail, Giant [1, 13]: 60
Plant response rating, Foxtail, Giant [1, 14]: 90
Plant response rating, Barnyardgrass [2, 15]: 0
Plant response rating, Barnyardgrass [2, 16]: 0
Plant response rating, Barnyardgrass [2, 17]: 0
Plant response rating, Barnyardgrass ([2]; Flood, 31 g ai/ha): 0
Morningglory plant response rating [3, 11]: 90
Morningglory plant response rating [3, 12]: 90
Plant response rating, Morningglory [3, 13]: 30
Plant response rating, Morningglory [3, 14]: 90
Crabgrass, Large plant response rating [4, 11]: 40
Crabgrass, Large plant response rating [4, 12]: 80
Plant response rating, Crabgrass, Large [4, 13]: 90
Plant response rating, Crabgrass, Large [4, 14]: 100
Plant response rating, Ducksalad [5, 15]: 0
Plant response rating, Ducksalad [5, 16]: 0
Plant response rating, Ducksalad [5, 17]: 45
Plant response rating, Ducksalad ([5]; Flood, 31 g ai/ha): 0
Plant response rating, Rice (rice (Oryza sativa); [15]): 0
Plant response rating, Rice (rice (Oryza sativa); [16]): 0
Plant response rating, Rice (rice (Oryza sativa); [17]): 0
Plant response rating, Rice (rice (Oryza sativa); Flood, 31 g ai/ha): 0
Pigweed plant response rating [6, 11]: 60
Pigweed plant response rating [6, 12]: 100
Plant response rating, Pigweed [6, 13]: 90
Plant response rating, Pigweed [6, 14]: 100
Velvetleaf plant response rating [7, 11]: 30
Velvetleaf plant response rating [7, 12]: 80
Plant response rating, Velvetleaf [7, 13]: 20
Plant response rating, Velvetleaf [7, 14]: 60
Plant response rating, Sedge, Umbrella [8, 15]: 0
Plant response rating, Sedge, Umbrella [8, 16]: 0
Plant response rating, Sedge, Umbrella [8, 17]: 75
Plant response rating, Sedge, Umbrella ([8]; Flood, 31 g ai/ha): 0
Corn plant response rating (corn (Zea mays); [11]): 20
Corn plant response rating (corn (Zea mays); [12]): 40
Plant response rating, Corn (corn (Zea mays); [13]): 0
Plant response rating, Corn (corn (Zea mays); [14]): 0
Wheat plant response rating [9, 11]: 0
Wheat plant response rating [9, 12]: 20
Plant response rating, Wheat [9, 13]: 0
Plant response rating, Wheat [9, 14]: 10
Barnyardgrass plant response rating [10, 11]: 10
Barnyardgrass plant response rating [10, 12]: 80
Plant response rating, Barnyardgrass [10, 13]: 20
Plant response rating, Barnyardgrass [10, 14]: 80

Cc1nn(-c2ccc(C(F)F)cn2)nc1C(=O)c1cccc(C(F)(F)F)c1 [Compound 68]
Foxtail, Giant plant response rating [1, 11]: 10
Foxtail, Giant plant response rating [1, 12]: 10
Plant response rating, Foxtail, Giant [1, 13]: 0
Plant response rating, Foxtail, Giant [1, 14]: 0
Plant response rating, Barnyardgrass [2, 15]: 0
Plant response rating, Barnyardgrass [2, 16]: 0
Plant response rating, Barnyardgrass [2, 17]: 0
Plant response rating, Barnyardgrass ([2]; Flood, 31 g ai/ha): 0
Morningglory plant response rating [3, 11]: 0
Morningglory plant response rating [3, 12]: 10
Plant response rating, Morningglory [3, 13]: 0
Plant response rating, Morningglory [3, 14]: 0
Crabgrass, Large plant response rating [4, 11]: 10
Crabgrass, Large plant response rating [4, 12]: 10
Plant response rating, Crabgrass, Large [4, 13]: 0
Plant response rating, Crabgrass, Large [4, 14]: 0
Plant response rating, Ducksalad [5, 15]: 0
Plant response rating, Ducksalad [5, 16]: 0
Plant response rating, Ducksalad [5, 17]: 0
Plant response rating, Ducksalad ([5]; Flood, 31 g ai/ha): 0
Plant response rating, Rice (rice (Oryza sativa); [15]): 0
Plant response rating, Rice (rice (Oryza sativa); [16]): 0
Plant response rating, Rice (rice (Oryza sativa); [17]): 0
Plant response rating, Rice (rice (Oryza sativa); Flood, 31 g ai/ha): 0
Pigweed plant response rating [6, 11]: 10
Pigweed plant response rating [6, 12]: 50
Plant response rating, Pigweed [6, 13]: 0
Plant response rating, Pigweed [6, 14]: 0
Velvetleaf plant response rating [7, 12]: 0
Plant response rating, Velvetleaf [7, 13]: 0
Plant response rating, Velvetleaf [7, 14]: 0
Plant response rating, Sedge, Umbrella [8, 15]: 0
Plant response rating, Sedge, Umbrella [8, 16]: 0
Plant response rating, Sedge, Umbrella [8, 17]: 0
Plant response rating, Sedge, Umbrella ([8]; Flood, 31 g ai/ha): 0
Corn plant response rating (corn (Zea mays); [11]): 0
Corn plant response rating (corn (Zea mays); [12]): 10
Plant response rating, Corn (corn (Zea mays); [13]): 0
Plant response rating, Corn (corn (Zea mays); [14]): 0
Wheat plant response rating [9, 11]: 0
Wheat plant response rating [9, 12]: 10
Plant response rating, Wheat [9, 13]: 0
Plant response rating, Wheat [9, 14]: 0
Barnyardgrass plant response rating [10, 11]: 0
Barnyardgrass plant response rating [10, 12]: 10
Plant response rating, Barnyardgrass [10, 13]: 0
Plant response rating, Barnyardgrass [10, 14]: 0

Cc1nn(-c2ccc(C(F)(F)F)cc2)nc1Cn1c(Cl)nc(C(F)(F)F)c1Cl [Compound 11]
Foxtail, Giant plant response rating [1, 11]: 0
Foxtail, Giant plant response rating [1, 12]: 0
Plant response rating, Foxtail, Giant [1, 13]: 0
Plant response rating, Foxtail, Giant [1, 14]: 0
Plant response rating, Barnyardgrass [2, 15]: 0
Plant response rating, Barnyardgrass [2, 17]: 0
Morningglory plant response rating [3, 11]: 0
Morningglory plant response rating [3, 12]: 0
Plant response rating, Morningglory [3, 13]: 0
Plant response rating, Morningglory [3, 14]: 0
Crabgrass, Large plant response rating [4, 11]: 0
Crabgrass, Large plant response rating [4, 12]: 0
Plant response rating, Crabgrass, Large [4, 13]: 0
Plant response rating, Crabgrass, Large [4, 14]: 0
Plant response rating, Ducksalad [5, 15]: 0
Plant response rating, Ducksalad [5, 17]: 0
Plant response rating, Rice (rice (Oryza sativa); [15]): 0
Plant response rating, Rice (rice (Oryza sativa); [17]): 0
Pigweed plant response rating [6, 11]: 0
Pigweed plant response rating [6, 12]: 20
Plant response rating, Pigweed [6, 13]: 0
Plant response rating, Pigweed [6, 14]: 0
Velvetleaf plant response rating [7, 11]: 0
Velvetleaf plant response rating [7, 12]: 0
Plant response rating, Velvetleaf [7, 13]: 0
Plant response rating, Velvetleaf [7, 14]: 0
Plant response rating, Sedge, Umbrella [8, 15]: 0
Plant response rating, Sedge, Umbrella [8, 17]: 0
Corn plant response rating (corn (Zea mays); [11]): 0
Corn plant response rating (corn (Zea mays); [12]): 0
Plant response rating, Corn (corn (Zea mays); [13]): 0
Plant response rating, Corn (corn (Zea mays); [14]): 0
Wheat plant response rating [9, 11]: 0
Wheat plant response rating [9, 12]: 0
Plant response rating, Wheat [9, 13]: 0
Plant response rating, Wheat [9, 14]: 0
Barnyardgrass plant response rating [10, 11]: 0
Barnyardgrass plant response rating [10, 12]: 0
Plant response rating, Barnyardgrass [10, 13]: 0
Plant response rating, Barnyardgrass [10, 14]: 0
